Measured values reported in patent US12145929B2, “Piperidine derivative and pharmaceutical composition for inhibiting autotaxin comprising same” (NEXTGEN BIOSCIENCE CO., LTD., priority 2021, dated 2024).

Biological target: human Autotaxin protein (Homo sapiens, UniProt Q13822)
Assay: Evaluation of inhibitory activity against human Autotaxin protein (18:1 LysoPC substrate, choline assay kit, absorbance 570 nm)
Format: biochemical
Conditions: compound at 500 nM, 2 hours at 37° C.
Description: The solution of each synthesized compound (80 uM, 100% dimethyl sulfoxide) was sequentially diluted 5 times with dimethyl sulfoxide to prepare 6 concentrations. Each concentration of compound was diluted two-fold with 1× test buffer (50 mM Tris-Cl (pH 8.0), 5 mM KCl, 1 mM CaCl2), 1 mM MgCl2, 140 mM NaCl, deionized water, 1 mg/mL BSA), and 1 uL (1.25% dimethyl sulfoxide) of this diluted mixture was dispensed into each well of a 96 well clear round bottom plate. 9 uL of 1× test buffer were added to each well, followed by the addition of 20 uL of 240 nM human Autotaxin protein (buffer: 50 mM Tris-HCl, pH 8.0, with 150 mM sodium chloride and 20% glycerol). 10 uL of sonicated 360 uM 18:1 LysoPC (diluted with 1× test buffer) were added to each well. The reaction was performed for 2 hours in a shaking incubator at 37° C., and a secondary reaction mixture (choline assay kit, KA1662) (65 uL of 1× test buffer: 1 uL of choline oxidase: 1 uL of dye probe) was prepared. 60 uL of the secondary reaction mixture were added to the reaction plate and reacted on a shaker for 30 minutes. Using a SpectraMax iD3 microplate reader, the absorbance was measured at a wavelength of 570 nm. The percentage of inhibition activity (% inhibition) was calculated by the Formula: (1−Absorbancetestgroup/Absorbancecontrol group)×100.

inhibition at 0.5 µM [%] | SMILES | inhibition (%) at 500 nM [%]
95.3 | CC1CC(c2cnn[nH]2)CCN1c1nnc(-c2cnc(NC3Cc4cc(F)c(F)cc4C3)nc2)o1 (stereo not shown) [Example 54, N-(5,6-difluoro-2,3-dihydro-1H-inden-2-yl)-5-(5-(2-methyl-4-(1H-1,2,3-triazol-5-yl)piperidin-1-yl)-1,3,4-oxadiazol-2-yl)pyrimidin-2-amine] | –
66.8 | O=C(NO)C1CCN(c2nnc(-c3cnc(NC4Cc5cc(F)c(F)cc5C4)nc3)o2)CC1 [Example 69, 1-(5-(2-((5,6-Difluoro-2,3-dihydro-1H-inden-2-yl)amino)pyrimidin-5-yl)-1,3,4-oxadiazol-2-yl)-N-hydroxypiperidine-4-carboxamide] | –
29.2 | Clc1cc(Cl)cc(CCNc2ncc(C3CC(N4CCC(c5cnn[nH]5)CC4)=NO3)cn2)c1 (stereo not shown) [Example 47, 5-(3-(4-(1H-1,2,3-triazol-5-yl)piperidin-1-yl)-4,5-dihydroisoxazol-5-yl)-N-(3,5-dichlorophenethyl)pyrimidin-2-amine] | –
70.2 | c1ccc2c(c1)CC(Nc1ncc(CCCN3CCC(c4c[nH]nn4)CC3)cn1)C2 [Example 62, 5-(3-(4-(1H-1,2,3-triazol-4-yl)piperidin-1-yl)propyl)-N-(2,3-dihydro-1H-inden-2-yl)pyrimidin-2-amine] | –
13.2 | FC(F)c1nnc(C2CCN(C3=NOC(c4cnc(NC5Cc6ccccc6C5)nc4)C3)CC2)o1 (stereo not shown) [Example 51, 5-(3-(4-(5-(Difluoromethyl)-1,3,4-oxadiazol-2-yl)piperidin-1-yl)-4,5-dihydroisoxazol-5-yl)-N-(2,3-dihydro-1H-inden-2-yl)pyrimidin-2-amine] | –
87.1 | O=C(O)CC1CCN(c2nnc(-c3cnc(NC4Cc5cc(F)c(F)cc5C4)nc3)o2)CC1 [Example 68, 2-(1-(5-(2-((5,6-Difluoro-2,3-dihydro-1H-inden-2-yl)amino)pyrimidin-5-yl)-1,3,4-oxadiazol-2-yl)piperidin-4-yl)acetic acid] | –
71.3 | Clc1cc(Cl)cc(CNc2ncc(C3CC(N4CCC(c5cnn[nH]5)CC4)=NO3)cn2)c1 (stereo not shown) [Example 44, 5-(3-(4-(1H-1,2,3-triazol-5-yl)piperidin-1-yl)-4,5-dihydroisoxazol-5-yl)-N-(3,5-dichlorobenzyl)pyrimidin-2-amine] | –
52 | c1cc2c(cc1CNc1ncc(-c3nnc(N4CCC(c5cnn[nH]5)CC4)o3)cn1)OCO2 [Example 55, 5-(5-(4-(1H-1,2,3-triazol-5-yl)piperidin-1-yl)-1,3,4-oxadiazol-2-yl)-N-(benzo[d][1,3]dioxol-5-ylmethyl)pyrimidin-2-amine] | –
53.2 | Fc1cc2c(cc1F)CC(Nc1ncc(-c3cc(N4CCC(c5cnn[nH]5)CC4)no3)cn1)C2 [Example 38, 5-(3-(4-(1H-1,2,3-triazol-5-yl)piperidin-1-yl)isoxazol-5-yl)-N-(5,6-difluoro-2,3-dihydro-1H-inden-2-yl)pyrimidin-2-amine] | –
70 | Cc1nc(NC2Cc3cc(Br)c(Br)cc3C2)ncc1-c1nnc(N2CCC(c3cnn[nH]3)CC2)o1 [Example 61, 5-(5-(4-(1H-1,2,3-triazol-5-yl)piperidin-1-yl)-1,3,4-oxadiazol-2-yl)-N-(5,6-dibromo-2,3-dihydro-1H-inden-2-yl)-4-methylpyrimidin-2-amine] | –

More lines, now with the values behind:

SMILES | inhibition at 0.5 µM [%] | inhibition (%) at 500 nM [%]
Fc1cc2c(cc1F)CC(Nc1ncc(-c3nnc(N4CCC(c5nnc(C(F)(F)F)o5)CC4)o3)cn1)C2 [Example 24, N-(5,6-difluoro-2,3-dihydro-1H-inden-2-yl)-5-(5-(4-(5-(trifluoromethyl)-1,3,4-oxadiazol-2-yl)piperidin-1-yl)-1,3,4-oxadiazol-2-yl)pyrimidin-2-amine] | 30.2 | –
O=C(CCCc1nnc(NC2Cc3ccccc3C2)o1)N1CCC(c2cnc[nH]2)CC1 [Example 22, 1-(4-(1H-Imidazol-5-yl)piperidin-1-yl)-4-(5-((2,3-dihydro-1H-inden-2-yl)amino)-1,3,4-oxadiazol-2-yl)butan-1-one] | 17 | –
Cn1nncc1C1CCN(c2nnc(-c3cnc(NC4Cc5cc(F)c(F)cc5C4)nc3)o2)CC1 [Example 33, N-(5,6-difluoro-2,3-dihydro-1H-inden-2-yl)-5-(5-(4-(1-methyl-1H-1,2,3-triazol-5-yl)piperidin-1-yl)-1,3,4-oxadiazol-2-yl)pyrimidin-2-amine] | 78.4 | –
Clc1ccc2c(c1)CC(Nc1ncc(-c3nnc(N4CCC(c5cnn[nH]5)CC4)o3)cn1)C2 (stereo not shown) [Example 3, 5-(5-(4-(1H-1,2,3-Triazol-5-yl)piperidin-1-yl)-1,3,4-oxadiazol-2-yl)-N-(5-chloro-2,3-dihydro-1H-inden-2-yl)pyrimidin-2-amine] | 100 | –
Clc1cc2c(cc1Cl)CC(Nc1ncc(-c3nnc(N4CCC(c5cnn[nH]5)CC4)o3)cn1)C2 [Example 6, 5-(5-(4-(1H-1,2,3-Triazol-5-yl)piperidin-1-yl)-1,3,4-oxadiazol-2-yl)-N-(5,6-dichloro-2,3-dihydro-1H-inden-2-yl)pyrimidin-2-amine] | 91 | –
Fc1cc2c(cc1F)CC(Nc1ncc(-c3nnc(N4CCC(c5ncon5)CC4)o3)cn1)C2 [Example 26, 5-(5-(4-(1,2,4-Oxadiazol-3-yl)piperidin-1-yl)-1,3,4-oxadiazol-2-yl)-N-(5,6-difluoro-2,3-dihydro-1H-inden-2-yl)pyrimidin-2-amine] | 27.9 | –
c1ccc2c(c1)CC(Nc1ccc(-c3nnc(N4CCC(c5cnn[nH]5)CC4)o3)nn1)C2 [Example 8, 6-(5-(4-(1H-1,2,3-Triazol-5-yl)piperidin-1-yl)-1,3,4-oxadiazol-2-yl)-N-(2,3-dihydro-1H-inden-2-yl)pyridazin-3-amine] | 14 | –
c1cnc2c(n1)CC(Nc1ncc(-c3nnc(N4CCC(c5cnn[nH]5)CC4)o3)cn1)C2 [Example 7, N-(5-(5-(4-(1H-1,2,3-triazol-5-yl)piperidin-1-yl)-1,3,4-oxadiazol-2-yl)pyrimidin-2-yl)-6,7-dihydro-5H-cyclopenta[b]pyrazin-6-amine] | 40 | –
Cn1cc(C2CCN(c3nnc(-c4cnc(NC5Cc6cc(F)c(F)cc6C5)nc4)o3)CC2)nn1 [Example 34, N-(5,6-difluoro-2,3-dihydro-1H-inden-2-yl)-5-(5-(4-(1-methyl-1H-1,2,3-triazol-4-yl)piperidin-1-yl)-1,3,4-oxadiazol-2-yl)pyrimidin-2-amine] | 17.3 | –
O=C(COCc1nnc(NC2Cc3ccccc3C2)s1)N1CCC(c2cnn[nH]2)CC1 [Example 23, 1-(4-(1H-1,2,3-Triazol-5-yl)piperidin-1-yl)-2-((5-((2,3-dihydro-1H-inden-2-yl)amino)-1,3,4-thiadiazol-2-yl)methoxy)ethanone] | 20 | –
Fc1cc2c(cc1F)CC(Nc1ncc(C3CC(N4CCC(c5cnn[nH]5)CC4)=NO3)cn1)C2 (stereo not shown) [Example 37, N-(5,6-difluoroindan-2-yl)-5-[3-[4-(1H-triazol-5-yl)-1-piperidyl]-4,5-dihydroisoxazol-5-yl]pyrimidin-2-amine] | – | 93.2
Fc1ccc2c(c1)CC(Nc1ncc(-c3nnc(N4CCC(c5cnn[nH]5)CC4)o3)cn1)C2 (stereo not shown) [Example 2, 5-(5-(4-(1H-1,2,3-Triazol-5-yl)piperidin-1-yl)-1,3,4-oxadiazol-2-yl)-N-(5-fluoro-2,3-dihydro-1H-inden-2-yl)pyrimidin-2-amine] | 100 | –
Fc1cc2c(cc1F)CC(Nc1ncc(-c3nnc(N4CCC(n5cnnn5)CC4)o3)cn1)C2 [Example 28, 5-(5-(4-(1H-Tetrazol-1-yl)piperidin-1-yl)-1,3,4-oxadiazol-2-yl)-N-(5,6-difluoro-2,3-dihydro-1H-inden-2-yl)pyrimidin-2-amine] | 52.5 | –
O=C(CCCc1nnc(NC2Cc3ccccc3C2)s1)N1CCC(c2cnn[nH]2)CC1 [Example 19, 1-(4-(1H-1,2,3-Triazol-5-yl)piperidin-1-yl)-4-(5-((2,3-dihydro-1H-inden-2-yl)amino)-1,3,4-thiadiazol-2-yl)butan-1-one] | 43 | –
Fc1cc2c(cc1F)CC(Nc1ncc(-c3nnc(N4CCC(c5nnc(C(F)F)o5)CC4)o3)cn1)C2 [Example 25, N-(5,6-difluoro-2,3-dihydro-1H-inden-2-yl)-5-(5-(4-(5-(difluoromethyl)-1,3,4-oxadiazol-2-yl)piperidin-1-yl)-1,3,4-oxadiazol-2-yl)pyrimidin-2-amine] | 31.1 | –
Clc1cc(NC2Cc3ccc(Br)cc3C2)ncc1-c1nnc(N2CCC(c3cnn[nH]3)CC2)o1 (stereo not shown) [Example 14, 5-(5-(4-(1H-1,2,3-Triazol-5-yl)piperidin-1-yl)-1,3,4-oxadiazol-2-yl)-N-(5-bromo-2,3-dihydro-1H-inden-2-yl)-4-chloropyridin-2-amine] | 5 | –
c1ccc2c(c1)CC(Nc1ncc(-c3nnc(N4CCC(n5cncn5)CC4)o3)cn1)C2 [Example 9, 5-(5-(4-(1H-1,2,4-Triazol-1-yl)piperidin-1-yl)-1,3,4-oxadiazol-2-yl)-N-(2,3-dihydro-1H-inden-2-yl)pyrimidin-2-amine] | 81 | –
CN(c1ncc(-c2nnc(N3CCC(c4cnn[nH]4)CC3)o2)cn1)C1Cc2cc(F)c(F)cc2C1 [Example 32, 5-(5-(4-(1H-1,2,3-triazol-5-yl)piperidin-1-yl)-1,3,4-oxadiazol-2-yl)-N-(5,6-difluoro-2,3-dihydro-1H-inden-2-yl)-N-methylpyrimidin-2-amine] | 34.3 | –
